Converted amounts (≈) assume the structure as drawn. Like-named read-outs stand apart in the source and are kept apart here.
Assays:
C. neoformans IAM4514 = test: In vitro antifungal MIC; format: cell-based, Cryptococcus neoformans
Procedure: (§1) The antifungal MICs of dynemicin C and its triacetate were determined by an agar dilution method on yeast morphology agar adjusted to pH7.0 with 1/15M phosphate buffer. A 5 μl aliquot of fungal suspension containing 10^6 cells/ml was inoculated onto the surface of the antibiotic-containing agar plates with a multiinoculator.

[1] = tested on: B16-F10 (murine melanoma) cells; test: In vitro cytotoxicity; format: cell-based; details: Mus musculus, 72 hours, 37° C., neutral red, 540 nm
Procedure: (§2) Dynemicin C and its triacetate derivative were tested for in vitro cytotoxicity against murine and human tumor cell lines. Dynemicin A and its triacetate derivative were used as reference compounds. B16-F10 (murine melanoma) cells were grown to the logarithmic phase in enriched Eagle minimum essential medium (MEM) supplemented with fetal calf serum (FCS, 10%) and kanamycin (60 mcg/ml) and HCT-116 (human colon carcinoma) cells in Maccoy's 5A medium supplemented with FCS (10%), penicillin (100 μ/ml) and streptomycin (100 mcg/ml), and were harvested and inoculated into wells of the 96- or 24-well tissue culture plate with test materials at concentrations of 1.5×10^4, 1.3×10^4, 1.3×10^4, 2.5×10^4 and 3.0×10^4 cells/ml., respectively. They were incubated at 37° C. in a humidified atmosphere of 5% CO2 and 95% air for 72 hours. The cytotoxic activities were determined colorimetrically at 540 nm after staining viable cells with 0.006% neutral red solution.

[2] = tested on: HCT-116 (human colon carcinoma) cells; test: In vitro cytotoxicity; format: cell-based; details: 72 hours, 37° C., neutral red, 540 nm
Procedure: as §2

P. aeruginosa KKA19 = test: In vitro antibacterial MIC; format: cell-based; details: Pseudomonas aeruginosa, pH 7, nutrient agar pH7, 32° C., 18 hours
Procedure: (§3) The minimum inhibitory concentration (MIC) was determined by a two-fold serial tube dilution method using nutrient agar (pH7, Difco containing 10^5 cfu/ml).

P. cepecia A21213 = test: In vitro antibacterial MIC; format: cell-based; details: 18 h, pH 7
Procedure: as §3

P. vulgaris IPM-13 = test: In vitro antibacterial MIC; format: cell-based; details: Proteus vulgaris, IPM13, 18 h, pH 7
Procedure: as §3

X. maltophilia No. 661 = test: In vitro antibacterial MIC; format: cell-based; details: Stenotrophomonas maltophilia, pH 7, nutrient agar pH7, 32° C., 18 hours
Procedure: as §3

E. coli 255 = test: In vitro antibacterial MIC; format: cell-based; details: Escherichia coli, 255, 18 h, pH 7
Procedure: as §3

X. maltophilia GN12873 = test: In vitro antibacterial MIC; format: cell-based; details: Stenotrophomonas maltophilia, pH 7, nutrient agar pH7, 32° C., 18 hours
Procedure: as §3

S. epidermidis 11-1230 = test: In vitro antibacterial MIC; format: cell-based; details: Staphylococcus epidermidis, 111230, 18 h, pH 7
Procedure: as §3

P. aeruginosa A9843A = test: In vitro antibacterial MIC; format: cell-based; details: Pseudomonas aeruginosa, 18 h, pH 7
Procedure: as §3

P. aeruginosa A20599 = test: In vitro antibacterial MIC; format: cell-based; details: Pseudomonas aeruginosa, A20599, 18 h, pH 7
Procedure: as §3

S. marcescens IPM-15 = test: In vitro antibacterial MIC; format: cell-based; details: Serratia marcescens, IPM15, 18 h, pH 7
Procedure: as §3

P. cepecia No. 651 = test: In vitro antibacterial MIC; format: cell-based; details: 18 h, pH 7
Procedure: as §3

S. aureus A15036 (MRSA) = test: In vitro antibacterial MIC; format: cell-based; details: Staphylococcus aureus, 18 h, pH 7
Procedure: as §3

P. aeruginosa IPM-8 = test: In vitro antibacterial MIC; format: cell-based; details: Pseudomonas aeruginosa, IPM8, 18 h, pH 7
Procedure: as §3

E. faecalis A9808 = test: In vitro antibacterial MIC; format: cell-based; details: Enterococcus faecalis, A9808, 18 h, pH 7
Procedure: as §3

E. coli Juhl A15119 = test: In vitro antibacterial MIC; format: cell-based; details: Escherichia coli, JUHLA15119, 18 h, pH 7
Procedure: as §3

S. aureus smith = test: In vitro antibacterial MIC; format: cell-based; details: Staphylococcus aureus, 18 h, pH 7
Procedure: as §3

E. faecium A24817 = test: In vitro antibacterial MIC; format: cell-based; details: Enterococcus faecium, pH 7, nutrient agar pH7, 32° C., 18 hours
Procedure: as §3

S. aureus IPM-24 (MRSA) = test: In vitro antibacterial MIC; format: cell-based; details: Staphylococcus aureus, 18 h, pH 7
Procedure: as §3

P. mirabilis IFO 3849 = test: In vitro antibacterial MIC; format: cell-based; details: Proteus mirabilis, IFO3849, 18 h, pH 7
Procedure: as §3

M. luteus PCI 1001 = test: In vitro antibacterial MIC; format: cell-based; details: Micrococcus luteus, PCI1001, pH 7, nutrient agar pH7, 32° C., 18 hours
Procedure: as §3

E. cloacae IPM-12 = test: In vitro antibacterial MIC; format: cell-based; details: Enterobacter cloacae, IPM12, 18 h, pH 7
Procedure: as §3

P. aeruginosa IPM-9 = test: In vitro antibacterial MIC; format: cell-based; details: Pseudomonas aeruginosa, IPM9, 18 h, pH 7
Procedure: as §3

K. pneumoniae PCI 602 = test: In vitro antibacterial MIC; format: cell-based; details: Klebsiella pneumoniae, PCI602, 18 h, pH 7
Procedure: as §3

M. morganii I510 = test: In vitro antibacterial MIC; format: cell-based; details: Morganella morganii, I510, 18 h, pH 7
Procedure: as §3

S. marcescens IPM-16 = test: In vitro antibacterial MIC; format: cell-based; details: Serratia marcescens, IPM16, 18 h, pH 7
Procedure: as §3

P. rettgeri IPM-14 = test: In vitro antibacterial MIC; format: cell-based; details: Providencia rettgeri, IPM14, 18 h, pH 7
Procedure: as §3

[3] = tested on: Cryptococcus neoformans D49; test: In vitro antifungal MIC; format: cell-based; details: for MIC: pH 7
Procedure: as §1

[4] = tested on: Candida albicans ATCC 38247; test: In vitro antifungal MIC; format: cell-based
Procedure: as §1

gram-negative organisms = test: In vitro antibacterial activity, gram-negative organisms as a group; format: cell-based; details: 18 h, read-out: MIC (range)
Procedure: as §3

Solubility = format: physicochemical; details: solvent not stated
gram-positive organisms = test: In vitro antibacterial activity, gram-positive organisms as a group; format: cell-based
Procedure: as §3

[5] = Cryptococcus neoformans, D49, 40 h
[6] = Candida albicans, ATCC38247, 40 h, pH 7

SMILES	IC50 [1] [ng/mL]	IC50 [2] [ng/mL]	MIC (P. aeruginosa KKA19) [ng/mL]	MIC (P. cepecia A21213) [ng/mL]	MIC (P. vulgaris IPM-13) [ng/mL]	MIC (X. maltophilia No. 661) [ng/mL]	MIC (E. coli 255) [ng/mL]	MIC (X. maltophilia GN12873) [ng/mL]	MIC (S. epidermidis 11-1230) [ng/mL]	MIC (P. aeruginosa A9843A) [ng/mL]	MIC (P. aeruginosa A20599) [ng/mL]	MIC (S. marcescens IPM-15) [ng/mL]	MIC (P. cepecia No. 651) [ng/mL]	MIC (S. aureus A15036 (MRSA)) [ng/mL]	MIC (P. aeruginosa IPM-8) [ng/mL]	MIC (E. faecalis A9808) [ng/mL]	MIC (E. coli Juhl A15119) [ng/mL]	MIC (S. aureus smith) [ng/mL]	MIC (E. faecium A24817) [ng/mL]	MIC (S. aureus IPM-24 (MRSA)) [ng/mL]	further results
COC1=C(C(=O)O)C(C)C23OC24c2cc(O)c5c(c2NC3C#CC=CC#CC14)C(=O)c1c(O)ccc(O)c1C5=O (centres unmarked) [Dynemicin A, reference compound]	5.2 (≈ 9.67 nM)	3.2 (≈ 5.95 nM)	3.2 (≈ 5.95 nM)	0.8 (≈ 1.49 nM)	0.8 (≈ 1.49 nM)	0.8 (≈ 1.49 nM)	3.2 (≈ 5.95 nM)	1.6 (≈ 2.98 nM)	< 0.025	1.6 (≈ 2.98 nM)	3.2 (≈ 5.95 nM)	3.2 (≈ 5.95 nM)	0.8 (≈ 1.49 nM)	< 0.025	3.2 (≈ 5.95 nM)	< 0.025	3.2 (≈ 5.95 nM)	< 0.025	< 0.025	< 0.025	MIC (C. neoformans IAM4514; Cryptococcus neoformans, IAM4514, 40 h, pH 7): 200 ng/mL (≈ 372 nM); MIC (P. mirabilis IFO 3849): 1.6 ng/mL (≈ 2.98 nM); MIC (M. luteus PCI 1001): < 0.025 ng/mL; MIC (E. cloacae IPM-12): 1.6 ng/mL (≈ 2.98 nM); MIC (P. aeruginosa IPM-9): 6.3 ng/mL (≈ 11.7 nM); MIC (K. pneumoniae PCI 602): 3.2 ng/mL (≈ 5.95 nM); MIC (M. morganii I510): 0.8 ng/mL (≈ 1.49 nM); MIC (S. marcescens IPM-16): 3.2 ng/mL (≈ 5.95 nM); MIC (P. rettgeri IPM-14): 0.8 ng/mL (≈ 1.49 nM); MIC [3, 5]: 200 ng/mL (≈ 372 nM); MIC [4, 6]: < 3.1 ng/mL
COC1=C(C=O)C(C)C23OC24c2cc(OC(C)=O)c5c(c2NC3C#CC=CC#CC14)C(=O)c1c(OC(C)=O)ccc(OC(C)=O)c1C5=O (centres unmarked) [Dynemicin C triacetate]	0.74	2.8	400	200	100	200	400	800	0.8	200	400	800	200	0.4	400	6.3	400	0.8	6.3	0.4	activity (compared with amphotericin B and ketoconazole) (C. neoformans IAM4514; C. neoformans IAM4514, in words): inactive; MIC (gram-negative organisms): 50 to 800 ng/mL; solubility relative to dynemicin C (Solubility): increased solubility relative to dynemicin C; activity against gram-positive organisms compared with amikacin (gram-positive organisms; comparison in words): much better activities against these organisms than amikacin; activity against gram-positive organisms (gram-positive organisms; in words): strong activity; MIC (P. mirabilis IFO 3849): 200 ng/mL; MIC (M. luteus PCI 1001): 3.1 ng/mL; MIC (E. cloacae IPM-12): 800 ng/mL; MIC (P. aeruginosa IPM-9): 6300 ng/mL; MIC (K. pneumoniae PCI 602): 200 ng/mL; MIC (M. morganii I510): 50 ng/mL; MIC (S. marcescens IPM-16): 400 ng/mL; MIC (P. rettgeri IPM-14): 100 ng/mL; activity (compared with amphotericin B and ketoconazole) ([3]; Cryptococcus neoformans D49, in words): inactive; MIC [3, 5]: > 100000 ng/mL; activity compared with ketoconazole ([4]; Candida albicans ATCC 38247, amphotericin resistant, in words): stronger than that of ketoconazole; MIC [4, 6]: 400 ng/mL
CC(=O)N1CCN(c2ccc(OCC3COC(Cn4ccnc4)(c4ccc(Cl)cc4Cl)O3)cc2)CC1 (centres unmarked) [Ketoconazole, reference compound]																					MIC (C. neoformans IAM4514; IAM4514, pH 7, Cryptococcus neoformans IAM 4514, yeast morphology agar pH7.0, 28° C., 40 hours, read-out: MIC): 100 ng/mL (≈ 188 nM); MIC ([3]; Cryptococcus neoformans D49, yeast morphology agar pH7.0, 28° C., 40 hours, read-out: MIC): 100 ng/mL (≈ 188 nM); MIC ([4]; ATCC38247, pH 7, Candida albicans ATCC 38247, amphotericin resistant strain, yeast morphology agar pH7.0, 28° C., 40 hours, read-out: MIC): 6300 ng/mL (≈ 11900 nM)

Reference: US5162330A, “Dynemicin C antibiotic, its triacetyl derivative and pharmaceutical composition containing same” (Bristol-Myers Squibb Co., priority 1990, dated 1992)
